Target: T1, human leukocyte 5-lipoxygenase (Homo sapiens, UniProt P09917)
T1 construct: endogenous in cells; host or cells: leukocytes from fresh blood of normal adult men
T1 sequence (P09917 1-674): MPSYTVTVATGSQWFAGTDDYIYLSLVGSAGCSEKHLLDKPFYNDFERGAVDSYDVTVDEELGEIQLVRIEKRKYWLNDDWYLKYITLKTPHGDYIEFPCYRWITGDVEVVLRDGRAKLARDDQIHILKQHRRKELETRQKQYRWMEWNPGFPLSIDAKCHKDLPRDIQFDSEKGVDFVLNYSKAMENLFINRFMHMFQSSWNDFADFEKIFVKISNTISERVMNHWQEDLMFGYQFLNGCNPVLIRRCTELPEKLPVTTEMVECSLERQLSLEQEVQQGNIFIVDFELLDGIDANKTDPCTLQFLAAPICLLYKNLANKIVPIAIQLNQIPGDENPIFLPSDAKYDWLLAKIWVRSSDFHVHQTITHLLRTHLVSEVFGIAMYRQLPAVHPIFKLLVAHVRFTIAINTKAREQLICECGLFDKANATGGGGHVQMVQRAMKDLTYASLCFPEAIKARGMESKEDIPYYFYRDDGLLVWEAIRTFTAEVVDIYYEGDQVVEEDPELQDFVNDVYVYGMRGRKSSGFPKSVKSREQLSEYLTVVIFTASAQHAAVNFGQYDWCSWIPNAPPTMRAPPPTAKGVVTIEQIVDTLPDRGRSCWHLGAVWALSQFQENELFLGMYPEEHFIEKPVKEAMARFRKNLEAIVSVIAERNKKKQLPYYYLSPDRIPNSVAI
Assay: 5-Lipoxygenase inhibition in human leukocytes, 5-HETE formation (5LOA1, 5LOA in Table 6)
Format: cell-based
Settings: 50% inhibition of 5-HETE formation, E -number means X 10^-no., read-out: IC50 (5LOA)
Source text: To Evaluate the Effect of Each Compounds as a 5-Lipoxygenase Inhibitor in Comparison to Standard Reference Agents in Human Leukocytes (5LOAl)
The purpose of this assay is to evaluate the activity of each compound as an inhibitor of human leukocyte 5-lipoxygenase.
Arachidonic acid and calcium ionophore A23187 are obtained from Sigma (St. Louis, MO). Silica gel plates, GF are obtained from Analtech (Newark, DE). Arachidonic acid, (1-^14 C) and 5-HETE (^3 H), 5-(S)-hydroxy-6-trans, 8,11,14-cis eicosatetraenoic acid, are obtained from New England Nuclear (Boston, MA). Six percent Dextran-70 in 0.9% NaCl is obtained from Cuffer Labs (Berkeley, CA).
Preparation of Leukocytes
Fresh blood from normal adult men who had not received any drugs for at least the previous five days is obtained by the Community Research Clinic (WL/PD) using venipuncture and collected into heparinized vacuotainer tubes. To every 100 ml of pooled blood is added 25 ml of dextran solution (6% dextran -70 in 0.9% sodium chloride containing 3% dextrose) and this is mixed gently in a plastic cylinder. The mixture is left to stand at room temperature for at least 90 minutes. The upper layer which is rich in leukocytes and platelets is then carefully decanted into 50 ml plastic tubes and centrifuged at about 100×g for eight minutes in and IEC centrifuge and rotor number 269 (about 600 rpm). The supernatant fluid is discarded and the pellet is resuspended in 10 ml of 0.87% ammonium chloride for exactly two minutes. This procedure is to lyse completely contaminating red blood cells. Leukocytes are then separated by centrifugation for ten minutes. The pellet is washed three times by suspension in 20 ml PBS (sodium chloride, 7.1 g; Na2 HPO4, 1.15 g; KH2 PO4,0.2 g, and KCl, 0.2 g/L) and centrifuged as before. The final pellet is suspended in PBS containing 0.87 mM CaCl2. Viability of the cells is then checked using trypan blue exclusion method and is found to be over 90%.
5-Lipoxygenase Enzyme Assay
Leukocyte cells in suspension (0.98 ml) are incubated with or without test compounds for five minutes at 37° C. in a shaking water bath. At this time a […] mixture is perpared per 1 ml of cell suspension: 100 mM arachidonic acid, 1 μl, 0.05 μCi ^14 C-arachidonic acid in 5 μl; 1 mM calcium ionophore A23187, 10 μl (1). This mixture is added and the incubation continued for five minutes. The reaction is stopped by adding four volumes of absolute ethanol and the mixture is kept in ice for 30 minutes. The floculated precipitate is separated by centrifugation at about 37,000×g for 20 minutes (Beckman Instruments rotor number 40). The alcohol extract is taken to dryness under a stream of nitrogen and the residue is dissolved in 100-200 μl absolute ethanol. At the time any turbidity is removed by centrifugation. An aliquot (25-50 μl) is applied onto 20×20 cm silica gel TLC plate and developed using the following solvent system: diethyl ether, petroleum ether (2040°C.),acetic acid (50:50: 1 v/v). Zones of 1 cm apart are scraped from the TLC plate and transferred to mini-vials. Methanol (0.5 ml) is added to dissolve the radioactivity adsorbed to the silica gel and scintillation fluid (H. P., Beckman), 5 ml is then added and vials are counted in a liquid scintillation counter. A sample of ^3 H-5-HETE is applied and used for the identification of the formed 5-HETE. Total radioactivity in the test as well as the control samples are normalized and the amount of 5-HETE present is calculated accordingly.
IC50 values are defined as the concentrations of test agents which caused a 50% inhibition of the formation of 5-HETE as compared to control and are determined by inspection of the concentration-response curves.

IC50: 500 nM
Structure (SMILES): COc1ccc(CCc2ccc(NC(=O)c3ccc(C)cc3O)cc2)cc1OC [Example 46, N-[4-[2-(3,4-Dimethoxyphenyl)ethyl]phenyl]-2-hydroxy-4-methylbenzamide]

From US4939133A, “N-substituted-2-hydroxy-α-oxo-benzeneacetamides and pharmaceutical compositions having activity as modulators of the arachidonic acid cascade” (Warner-Lambert Company, priority 1985, dated 1990)
